# What was measured:
# Assay type in all cases: binding
# [1] = biological target: T1, Recombinant human integrin αVβ5 (Homo sapiens, UniProt P06756+P18084); assay: Solid Phase Receptor Assay (SPRA) for αVβ5 function; conditions: plate-bound human vitronectin
# T1 construct: purchased R&D Systems 2528-AV
# Description: D. Solid Phase Receptor Assay (SPRA) for αVβ5 Function
# (§1) Wells were washed 3 times with 150 μL TBS+ and then 150 μL of blocking buffer (TBS+ with 1% bovine serum albumin, Sigma A7906) was added. The plate was incubated for 1 hr at 37° C. and then washed 3× with TBS+ buffer. […] Compounds were diluted to 20 μM and then 1 μL was added to each well of the plate according to a standard template with each sample repeated in triplicate. After incubation for two hours at room temperature, the plate was washed 3× with 150 μL of TBS+ buffer. To each well, 50 μl of biotinylated anti-αV antibody (R&D Systems, BAF1219) at 0.5 μg/mL in TBS+/0.1% BSA at 0.5 μg/mL were added and the plate covered and incubated for 1 hr at room temperature. After washing the plate 3× with 150 μL of TBS+ buffer, 50 μL of streptavidin-conjugated horseradish peroxidase (R&D Systems, DY998) diluted in TBS+ blocking buffer were added to the wells and the plate incubated for 20 min at room temperature. The plate was washed 3× with TBS+ buffer followed by 50 μL of TMB substrate (Sigma T4444) added to each well in the dark and the plate incubated for 5 min at room temperature. 25 μL of 1.0 M phosphoric acid was added as a stop solution and the plates were read at 450 nm using a Spectramax plate reader.
# [2] = biological target: T2, Recombinant human integrin α5β1 (Homo sapiens, UniProt P05556+P08648); assay: Solid Phase Receptor Assay (SPRA) for α5β1 function; conditions: plate-bound human fibronectin
# T2 construct: purchased R&D Systems 3230-A5
# Description: A. Solid Phase Receptor Assay (SPRA) for α5β1 Function
# Wells were washed 3 times with 150 μL TBS+ and then 150 μL of blocking buffer (TBS+ with 1% bovine serum albumin, Sigma A7906) was added. The plate was incubated for 1 hr at 37° C. and then washed 3× with TBS+ buffer. […] Compounds were diluted to 20 μM and then 1 μL was added to each well of the plate according to a standard template with each sample repeated in triplicate. After incubation for two hours at room temperature, the plate was washed 3× with 150 μL of TBS+ buffer. To each well, 50 μL of biotinylated anti-α5 antibody (R&D Systems, BAF1864) at 0.5 μg/mL in TBS+/0.1% BSA were added and the plate covered and incubated for 1 hr at room temperature. After washing the plate 3× with 150 μL of TBS+ buffer, 50 μL of streptavidin-conjugated horseradish peroxidase (R&D Systems, DY998) diluted in TBS+ blocking buffer were added to the wells and the plate incubated for 20 min at room temperature. The plate was washed 3× with TBS+ buffer followed by 50 μL of room temperature TMB substrate (Sigma, T4444) added to each well in the dark and the plate incubated for 25 min at room temperature. 25 μL of 1.0 M phosphoric acid was added as a stop solution and the plates were read at 450 nm using a Spectramax plate reader.
# [3] = biological target: T3, Recombinant human integrin αVβ8 (Homo sapiens, UniProt P06756+P26012); assay: Solid Phase Receptor Assay for αVβ8 function; conditions: plate-bound human LAP; read-out: αVβ8 SPRA IC50
# T3 construct: purchased R&D Systems 4135-AV
# Description: F. Solid Phase Receptor Assay (SFRA) for αVβ8 Function
# Wells were washed 3 times with 150 μL TBS+ and then 150 μL of blocking buffer (TBS+ with 1% bovine serum albumin, Sigma A7906) was added. The plate was incubated for 1 hr at 37° C. and then washed 3× with TBS+. […] Compounds were diluted to 20 μM and 1 μL was added to each well of the plate according to a standard template with each sample repeated in triplicate. After incubation for two hours at room temperature, the plate was washed 3× with 150 μL of TBS+. To each well, 50 μL of biotinylated anti-αV antibody (R&D Systems, BAF1219) at 1 μg/mL in TBS+/0.1% BSA were added and the plate was covered and incubated for 1 hr at room temperature. After washing the plate 3× with 150 μL of TBS+ buffer, 50 μL of streptavidin-conjugated horseradish peroxidase (R&D Systems, DY998) diluted in TBS+ blocking buffer were added to the wells and the plate incubated for 20 min at room temperature. The plate was washed 3× with TBS+ followed by 50 μL of TMB substrate (Sigma T4444) added to each well in the dark and the plate incubated for 10 min at room temperature. 25 μL of 1.0 M phosphoric acid was added as a stop solution and the plates were read at 450 nm using a Spectramax plate reader.
# [4] = biological target: T4, Recombinant human integrin αvβ1 (Homo sapiens, UniProt P05556+P06756); assay: Solid Phase Receptor Assay (SPRA) for αVβ1 function; conditions: plate-bound human fibronectin
# T4 construct: purchased R&D Systems 6579-AV
# Description: B. Solid Phase Receptor Assay (SPRA) for αVβ1 Function
# as §1, with “μM and 1 μL” for “μM and then 1 μL”, “well, 50 μL of biotinylated” for “well, 50 μl of biotinylated”, “BAF1219) at 1 μg/mL in” for “BAF1219) at 0.5 μg/mL in”, “TBS+/0.1% BSA were added” for “TBS+/0.1% BSA at 0.5 μg/mL were added”, “TMB substrate (Sigma, T4444) added” for “TMB substrate (Sigma T4444) added”, “incubated for 25 min at” for “incubated for 5 min at”
# T2 sequence (P08648 42-995 limits assumed): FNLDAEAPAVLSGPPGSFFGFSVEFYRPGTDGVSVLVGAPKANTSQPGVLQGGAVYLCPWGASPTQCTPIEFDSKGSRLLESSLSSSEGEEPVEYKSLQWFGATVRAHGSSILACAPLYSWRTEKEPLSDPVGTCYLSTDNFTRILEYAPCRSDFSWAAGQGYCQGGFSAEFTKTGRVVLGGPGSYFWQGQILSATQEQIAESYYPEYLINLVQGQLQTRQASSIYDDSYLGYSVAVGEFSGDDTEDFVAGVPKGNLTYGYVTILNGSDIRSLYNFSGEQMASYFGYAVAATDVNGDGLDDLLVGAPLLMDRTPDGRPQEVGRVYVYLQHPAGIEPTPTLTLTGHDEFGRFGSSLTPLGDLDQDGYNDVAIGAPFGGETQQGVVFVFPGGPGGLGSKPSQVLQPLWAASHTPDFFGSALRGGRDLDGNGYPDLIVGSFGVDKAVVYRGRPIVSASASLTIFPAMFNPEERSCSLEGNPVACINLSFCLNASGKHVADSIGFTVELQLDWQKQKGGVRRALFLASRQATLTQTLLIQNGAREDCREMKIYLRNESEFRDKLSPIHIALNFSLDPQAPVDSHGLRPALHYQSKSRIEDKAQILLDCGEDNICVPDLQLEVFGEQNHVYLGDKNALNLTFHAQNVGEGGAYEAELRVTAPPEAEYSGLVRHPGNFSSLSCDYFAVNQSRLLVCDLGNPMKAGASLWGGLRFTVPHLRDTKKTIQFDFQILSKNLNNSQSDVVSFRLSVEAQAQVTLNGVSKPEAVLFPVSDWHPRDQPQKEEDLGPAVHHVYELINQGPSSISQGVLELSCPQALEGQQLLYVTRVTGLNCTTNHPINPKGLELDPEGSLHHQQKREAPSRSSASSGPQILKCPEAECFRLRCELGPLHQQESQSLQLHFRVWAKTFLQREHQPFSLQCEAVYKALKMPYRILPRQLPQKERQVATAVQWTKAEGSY
# T2 sequence (P05556 21-728 limits assumed): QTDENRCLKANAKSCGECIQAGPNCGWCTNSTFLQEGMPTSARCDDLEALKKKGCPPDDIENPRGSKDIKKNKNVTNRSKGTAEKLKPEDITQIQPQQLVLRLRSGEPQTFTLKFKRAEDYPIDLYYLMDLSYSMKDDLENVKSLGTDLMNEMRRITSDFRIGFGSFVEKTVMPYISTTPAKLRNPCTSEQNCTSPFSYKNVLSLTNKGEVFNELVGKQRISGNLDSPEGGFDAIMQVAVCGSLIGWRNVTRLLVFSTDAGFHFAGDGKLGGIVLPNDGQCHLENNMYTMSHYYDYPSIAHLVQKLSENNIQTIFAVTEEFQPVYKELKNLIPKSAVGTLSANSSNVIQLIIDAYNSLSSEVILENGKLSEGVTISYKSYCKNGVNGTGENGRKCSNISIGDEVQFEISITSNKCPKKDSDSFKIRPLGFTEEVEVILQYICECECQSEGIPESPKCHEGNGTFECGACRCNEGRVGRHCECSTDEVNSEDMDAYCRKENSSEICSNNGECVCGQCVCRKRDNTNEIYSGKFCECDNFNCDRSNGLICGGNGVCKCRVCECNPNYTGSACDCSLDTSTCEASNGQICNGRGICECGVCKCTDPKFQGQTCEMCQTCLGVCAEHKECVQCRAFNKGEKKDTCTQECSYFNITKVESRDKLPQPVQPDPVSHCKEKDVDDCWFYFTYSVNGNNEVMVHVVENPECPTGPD
# T4 sequence (P06756 31-992 limits assumed): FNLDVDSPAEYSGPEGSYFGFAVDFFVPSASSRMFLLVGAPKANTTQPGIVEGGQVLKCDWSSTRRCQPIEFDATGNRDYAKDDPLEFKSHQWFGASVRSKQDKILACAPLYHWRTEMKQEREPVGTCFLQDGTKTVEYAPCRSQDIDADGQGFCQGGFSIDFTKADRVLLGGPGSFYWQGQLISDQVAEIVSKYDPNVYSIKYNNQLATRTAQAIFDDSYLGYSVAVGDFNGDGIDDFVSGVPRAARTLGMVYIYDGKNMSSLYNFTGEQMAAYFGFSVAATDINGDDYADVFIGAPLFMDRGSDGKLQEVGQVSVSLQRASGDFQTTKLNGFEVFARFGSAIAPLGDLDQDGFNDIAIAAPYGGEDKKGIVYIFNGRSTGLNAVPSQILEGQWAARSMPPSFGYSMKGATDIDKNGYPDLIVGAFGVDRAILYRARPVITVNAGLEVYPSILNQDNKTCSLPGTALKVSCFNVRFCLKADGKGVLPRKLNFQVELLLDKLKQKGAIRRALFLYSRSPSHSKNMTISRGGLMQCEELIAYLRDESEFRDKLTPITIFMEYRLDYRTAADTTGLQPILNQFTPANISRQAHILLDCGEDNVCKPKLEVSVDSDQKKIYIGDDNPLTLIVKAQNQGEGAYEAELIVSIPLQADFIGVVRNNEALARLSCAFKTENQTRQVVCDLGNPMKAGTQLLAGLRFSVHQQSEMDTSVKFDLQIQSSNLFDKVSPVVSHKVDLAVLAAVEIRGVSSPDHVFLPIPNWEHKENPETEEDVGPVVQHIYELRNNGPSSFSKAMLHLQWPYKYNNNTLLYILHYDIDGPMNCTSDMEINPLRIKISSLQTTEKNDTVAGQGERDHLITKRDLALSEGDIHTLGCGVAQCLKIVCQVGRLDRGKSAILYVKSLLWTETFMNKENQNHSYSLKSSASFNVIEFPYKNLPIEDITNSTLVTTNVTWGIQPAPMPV
# T4 sequence (P05556 21-728 limits assumed): as the sequence (P05556 21-728 limits assumed) above
# T1 sequence (P06756 31-992 limits assumed): as the sequence (P06756 31-992 limits assumed) above
# T1 sequence (P18084 24-719 limits assumed): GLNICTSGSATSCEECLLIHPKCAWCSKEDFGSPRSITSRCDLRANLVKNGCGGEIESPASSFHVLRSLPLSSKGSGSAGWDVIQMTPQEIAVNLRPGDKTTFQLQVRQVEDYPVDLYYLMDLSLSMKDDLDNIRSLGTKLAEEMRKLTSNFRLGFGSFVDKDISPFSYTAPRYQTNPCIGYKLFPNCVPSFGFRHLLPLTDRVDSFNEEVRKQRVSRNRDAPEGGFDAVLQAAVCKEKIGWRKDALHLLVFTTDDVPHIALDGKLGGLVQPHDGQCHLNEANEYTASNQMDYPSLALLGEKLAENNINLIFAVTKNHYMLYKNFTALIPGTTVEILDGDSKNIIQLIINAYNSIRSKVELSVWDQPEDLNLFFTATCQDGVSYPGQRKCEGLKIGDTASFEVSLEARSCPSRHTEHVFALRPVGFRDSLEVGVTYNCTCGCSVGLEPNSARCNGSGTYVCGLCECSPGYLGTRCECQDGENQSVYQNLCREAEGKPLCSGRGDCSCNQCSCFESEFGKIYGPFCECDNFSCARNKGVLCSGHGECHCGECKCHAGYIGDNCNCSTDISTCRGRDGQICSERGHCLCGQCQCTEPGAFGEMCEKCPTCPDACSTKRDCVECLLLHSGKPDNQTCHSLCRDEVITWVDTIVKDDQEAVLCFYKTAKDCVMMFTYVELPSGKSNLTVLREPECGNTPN
# T3 sequence (P06756 31-992 limits assumed): as the sequence (P06756 31-992 limits assumed) above
# T3 sequence (P26012 43-684 limits assumed): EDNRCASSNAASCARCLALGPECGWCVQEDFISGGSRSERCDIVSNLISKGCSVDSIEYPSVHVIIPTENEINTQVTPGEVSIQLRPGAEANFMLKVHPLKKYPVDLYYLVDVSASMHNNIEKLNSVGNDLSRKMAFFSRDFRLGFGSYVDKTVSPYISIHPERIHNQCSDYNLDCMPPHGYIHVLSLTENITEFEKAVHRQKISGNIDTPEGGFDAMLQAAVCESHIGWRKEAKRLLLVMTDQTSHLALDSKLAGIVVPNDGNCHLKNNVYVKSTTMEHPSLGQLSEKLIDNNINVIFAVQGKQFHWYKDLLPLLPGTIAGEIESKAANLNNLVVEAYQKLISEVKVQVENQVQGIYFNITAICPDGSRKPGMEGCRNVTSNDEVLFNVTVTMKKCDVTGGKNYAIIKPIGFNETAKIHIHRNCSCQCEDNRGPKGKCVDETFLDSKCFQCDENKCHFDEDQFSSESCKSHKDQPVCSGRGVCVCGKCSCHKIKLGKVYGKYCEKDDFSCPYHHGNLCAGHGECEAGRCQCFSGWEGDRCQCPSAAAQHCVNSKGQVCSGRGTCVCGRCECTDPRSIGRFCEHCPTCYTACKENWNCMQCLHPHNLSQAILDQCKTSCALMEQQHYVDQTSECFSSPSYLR
Compound,IC50 [1],IC50 [2],IC50 [3],IC50 [4]
"O=C(O)CC(Cc1cc(OCCc2ccc3c(n2)NCCC3)[nH]n1)c1cccc(F)c1 (stereo not drawn) [CC2, reference compound]",0.2 nM,770 nM,680 nM,19 nM
"COCC1(c2cc(C(CC(=O)O)Cc3cc(OCCc4ccc5c(n4)NCCC5)n(C)n3)cc(C(C)(C)C)c2)CCOCC1 (stereo not drawn) [Example 1, 3-[3-tert-butyl-5-[4-(methoxymethyl)tetrahydropyran-4-yl]phenyl]-4-[1-methyl-5-[2-(5,6,7,8-tetrahydro-1,8-naphthyridin-2-yl)ethoxy]pyrazol-3-yl]butanoic acid]",44 nM,2 nM,27 nM,6 nM
"CC(C)c1cc(C#N)cc(C(CC(=O)O)Cc2cc(OCCc3ccc4c(n3)NCCC4)n(C)n2)c1 (stereo not drawn) [Example 2, 3-(3-cyano-5-isopropylphenyl)-4-(1-methyl-5-(2-(5,6,7,8-tetrahydro-1,8-naphthyridin-2-yl)ethoxy)-1H-pyrazol-3-yl)butanoic acid trifluoroacetic acid]",0.3 nM,7 nM,7 nM,9 nM
"Cn1nc(CC(CC(=O)O)c2cc(Br)cc(S(F)(F)(F)(F)F)c2)cc1OCCc1ccc2c(n1)NCCC2 (stereo not drawn) [Example 3, 3-[3-bromo-5-(pentafluoro-sulfanyl)phenyl]-4-[1-methyl-5-[2-(5,6,7,8-tetrahydro-1,8-naphthyridin-2-yl)ethoxy]pyrazol-3-yl]butanoic acid]",2 nM,31 nM,13 nM,12 nM
"CC(C)c1cc(C(C)C)cc(C(CC(=O)O)Cc2cc(OCCc3ccc4c(n3)NCCC4)n(C)n2)c1 (stereo not drawn) [Example 4, 3-(3,5-diisopropylphenyl)-4-[1-methyl-5-[2-(5,6,7,8-tetrahydro-1,8-naphthyridin-2-yl)ethoxy]pyrazol-3-yl]butanoic acid]",6 nM,4 nM,18 nM,7 nM
"Cn1nc(CC(CC(=O)O)c2cc(C(C)(C)C)cc(C(C)(C)C(F)(F)F)c2)cc1OCCc1ccc2c(n1)NCCC2 (stereo not drawn) [Example 5, 3-(3-(tert-butyl)-5-(1,1,1-trifluoro-2-methylpropan-2-yl)phenyl)-4-(1-methyl-5-(2-(5,6,7,8-tetrahydro-1,8-naphthyridin-2-yl)ethoxy)-1H-pyrazol-3-yl) butanoic acid]",160 nM,2 nM,20 nM,4 nM
"Cn1nc(CC(CC(=O)O)c2cc(C(C)(C)C)cc(C3(C(F)F)CC3)c2)cc1OCCc1ccc2c(n1)NCCC2 (stereo not drawn) [Example 6, 3-(3-(tert-butyl)-5-(1-(difluoromethyl)cyclopropyl)phenyl)-4-(1-methyl-5-(2-(5,6,7,8-tetrahydro-1,8-naphthyridin-2-yl)ethoxy)-1H-pyrazol-3-yl)butanoic acid]",54 nM,6 nM,15 nM,5 nM
"Cn1nc(CC(CC(=O)O)c2cc(C(C)(C)C)cc(C(C)(C)CO)c2)cc1OCCc1ccc2c(n1)NCCC2 (stereo not drawn) [Example 7, 3-[3-tert-butyl-5-(2-hydroxy-1,1-dimethyl-ethyl)phenyl]-4-[1-methyl-5-[2-(5,6,7,8-tetrahydro-1,8-naphthyridin-2-yl)ethoxy]pyrazol-3-yl]butanoic acid]",27 nM,1 nM,18 nM,3 nM
"Cn1nc(CC(CC(=O)O)c2cc(Cl)cc(C(C)(C)C#N)c2)cc1OCCc1ccc2c(n1)NCCC2 (stereo not drawn) [Example 8, 3-(3-chloro-5-(2-cyanopropan-2-yl)phenyl)-4-(1-methyl-5-(2-(5,6,7,8-tetrahydro-1,8-naphthyridin-2-yl)ethoxy)-1H-pyrazol-3-yl)butanoic acid]",0.3 nM,3 nM,3 nM,2 nM

# Reference: patent US20210284638A1 (Saint Louis University, priority 2018, published 2021)
